# In patent US7884262B2, “Modified DMO enzyme and methods of its use” (Monsanto Technology LLC, priority 2006, dated 2011):
# Values joined by “and” are separate entries in the source; they are usually repeats but may differ in a detail not shown here. Identical values can stand only once. “Also recorded” adds a separate entry of the source. Like-named read-outs stand apart in the source and are kept apart here.
# Columns and labels:
# [1] = test system: nontransgenic tobacco plants; details: for Herbicide damage symptoms: spray
# From the text: (§1) Plants in the greenhouse were sprayed with solvent and commercial grade dicamba (Clarity; BASF) using a compressed air, motor-driven, track sprayer with a flat-fan 8002E nozzle traveling at 1.87 mph. Additives included; 28% urea ammonium nitrate at 1.25% v/v and nonionic surfactant at 1.0% v/v. The solution containing dicamba at various concentrations was applied at 182 L/ha ([…]). Soybean field plantings were sprayed with Clarity herbicide at 2.8 kg/ha (2.5 lb/ac).
# (§2) In this study, the concentration of dicamba employed provided a dose of 1.12 kg/ha. […] In this study, treatments were compared using 2.2 kg/ha dicamba on two T1 tobacco plants, one carrying DMOc lacking a chloroplast transit peptide and the other completely lacking the DMOc gene due to genetic segregation.
# [2] = test system: Arabidopsis thaliana expressing the DMOc gene; details: 1.12 kg/ha
# From the text: (§3) Tobacco, tomato, soybeans and Arabidopsis were used for transgenic expression of the genetically engineered DMOc gene and confirmation of dicamba tolerance in plants expressing the gene. The DMOc coding sequence in binary vector pKLP36 was introduced into A. tumefaciens strain C58C1 containing the disarmed Ti plasmid pMP90 (Koncz and Schell, 1986) by triparental mating (Ditta 1980). The resultant transconjugants were used for tobacco (cv Xanthi) and tomato (cv Rutgers) transformation using the leaf disc protocol described by Horsch et al. (Horsch 1985). Arabidopsis thaliana was transformed by the floral dip technique (Clough and Bent, 1998). Transformation of soybean varieties Thorne and NE-3001 was carried out by cotyledonary-node Agrobacterium-mediated transformation system (Zhang et al., 1999).
# as §1, §2
# [3] = test system: DMOc-containing transgenic tobacco plants
# From the text: as §3, §1, §2
# [4] = test system: Transgenic tomato plants carrying the genetically engineered DMOc gene; details: first 0.56 kg/ha and subsequently 5.6 kg/ha
# From the text: as §3, §1, §2
# [5] = test system: transgenic soybean lines
# From the text: as §3, §1
# [6] = test system: homoplastidic transgenic tobacco plants containing a chloroplast-encoded dicamba monooxygenase gene
# [7] = DMO activity assay (DCSA formation by HPLC), steady state kinetics, pH and temperature optimum; type: biochemical
# Method: Protein concentrations were determined by Bradford assay with rabbit IgG as standard. Proteins were separated by SDS-PAGE and stained with Coomassie Blue. DMO activity was measured by following the formation of DCSA which was separated by HPLC (Waters Corporation, Milford, Mass.) by using a Discovery C18 column (Supelco, Sigma-Aldrich, St. Louis, Mo.). The retention time for DCSA was 8 minutes and for dicamba was 9.5 minutes. For kinetic studies the DCSA was detected and quantified by fluorescence emission at 420 nm (excitation wavelength 310 nm) after separation on the HPLC column from reaction mixture. Set concentrations of DCSA (12 and 24 μM) were used as quantification standards.
# Stock solution of dicamba (100, 200, 400, 800, 1000, 2000, 5000, and 10000 μM), 0.1 M KPi pH 7.2, 0.1 M FeSO4, 0.1 M NADH, and 1 M MgCl2 were used. The assays were performed at 30° C. for 20 minutes and the reaction was quenched by addition of 40 μl of H2SO4. For activity measurements DMO was coupled with an excess of purified ferredoxin and reductase from P. maltophilia strain DI-6.
# Since the assay for DMO activity was a discontinuous assay, it was important to establish the time for which the assay has to be run in order to obtain meaningful kinetic parameters. The assay thus has to be run under initial condition as the amount of DCSA produced is linear for the time the assay is being run (FIG. 4). […] (FIG. 6).
# The Michaelis-Menten parameters were determined by fitting the data to a nonlinear steady-state equation (Equation 1). The data were analyzed using Sigma plot 8.0 (Jandel Scientific). Vo=Vmax*[S]/(Km+[S]) Equation 1
# The optimum pH and temperature were also determined for DMOw and DMOc. Optimum pH was measured at 30° C. for 20 minutes and optimum temperature determination was measured also for 20 minutes at pH 7.2 for both forms of the enzyme. The results are summarized in FIGS. 7-9 and are discussed below.
# [8] = steady state, substrate dicamba
# [9] = steady state, substrate dicamba, 30° C., 20 minutes
molecule,measurement,setting,value
"COc1c(Cl)ccc(Cl)c1C(=O)O [dicamba, 3,6-dichloro-o-anisic acid]",Herbicide damage symptoms,[1]; 0.017 kg/ha,easily detected
same,Herbicide damage symptoms,[1]; 0.28 kg/ha,quite severe
same,Herbicide damage symptoms,[1]; 0.56 kg/ha,quite severe
same,damage caused by dicamba treatment,"[1]; 2.2 kg/ha, T1 plant lacking the DMOc gene due to genetic segregation",fully susceptible
same,damage,"[1]; 5.6 kg/ha, post-emergence, nontransgenic plant",severe damage
same,tolerance,[2],strong tolerance
same,symptoms,"[3]; 5.6 kg/ha, post-emergence","few, if any symptoms"
same,dicamba treatment level tolerated,[3]; transgenic tobacco expressing DMOc,≥ 5.6 kg/ha
same,damage,[4],no damage
same,tolerance,"[5]; 2.8 kg/ha (highest level tested), two years of field trials",strong tolerance
same,tolerance,"[5]; 2.8 kg/ha, greenhouse, most lines",significant tolerance
same,tolerance,"[5]; 5.6 kg/ha, greenhouse, most lines",significant tolerance
same,dicamba treatment level tolerated,[5]; DMOc in nuclear genome of soybean plants,2.8 kg/ha
same,damage,"[6]; 28 kg/ha (25 lb/ac), T1-T3 progeny",no apparent damage
same,damage,[6]; 112 kg/ha,only transitory damage
same,damage,[6]; 224 kg/ha,only transitory damage
same,dicamba tolerance level,[6]; DMOc gene in chloroplast genome,at least 28 kg/ha
DMOc: dicamba monooxygenase (DMO) variant comprising a cysteine at position 112 of SEQ ID NO:1 (protein) MATFVRNAWYVAALPEELSEKPLGRTILDTPLALYRQPDGVVAALLDICPHRFAPLSDGILVNGHLQCPYHGLEFDGGGQCVHNPHGNGARPASLNVRSFPVVERDALIWICPGDPALADPGAIPDFGCRVDPAYRTVGGYGHVDCNYKLLVDNLMDLGHAQYVHRANAQTDAFDRLEREVIVGDGEIQALMKIPGGTPSVLMAKFLRGANTPVDAWNDIRWNKVSAMLNFIAVAPEGTPKEQSIHSRGTHILTPETEASCHYFFGSSRNFGIDDPEMDGVLRSWQAQALVKEDKVVVEAIERRRAYVEANGIRPAMLSCDEAAVRVSREIEKLEQLEAA,catalytic efficiency relative to DMOw,[7]; DMOc vs DMOw,five times better enzyme than DMOw; also recorded: five times more efficient than DMOw
same,Km,"[7]; DMOc, Study no. 1-2",21 µM and 20 µM
same,Vmax,"[7]; DMOc, Study no. 1-2",713 ± 43 nmol/min/mg and 676 ± 37 nmol/min/mg
same,Km,[7]; Michaelis-Menten parameters,20.5 ± 5 µM
same,Vmax,[7]; Michaelis-Menten parameters,676 ± 37 nmol/min/mg
same,Vmax,[7]; [8],676 ± 37 × 10^−3 U/mg
same,kcat,[7]; [8],70.41 s⁻¹
same,Km,[7]; [9],20 µM
"DMOw: unaltered (wild type) dicamba monooxygenase sequence from Pseudomonas maltophilia, strain DI-6; U.S. Pat. No. 7,022,896 (protein, UniProt Q5S3I3 2-339, looked up) Dicamba O-demethylase, …: TFVRNAWYVAALPEELSEKPLGRTILDTPLALYRQPDGVVAALLDICPHRFAPLSDGILVNGHLQCPYHGLEFDGGGQCVHNPHGNGARPASLNVRSFPVVERDALIWIWPGDPALADPGAIPDFGCRVDPAYRTVGGYGHVDCNYKLLVDNLMDLGHAQYVHRANAQTDAFDRLEREVIVGDGEIQALMKIPGGTPSVLMAKFLRGANTPVDAWNDIRWNKVSAMLNFIAVAPEGTPKEQSIHSRGTHILTPETEASCHYFFGSSRNFGIDDPEMDGVLRSWQAQALVKEDKVVVEAIERRRAYVEANGIRPAMLSCDEAAVRVSREIEKLEQLEAA",optimum pH for the assay,"[7]; 0.1 M Kpi buffer, 30° C., 20 minutes",7.2
same,Km,"[7]; DMOw, Study no. 1-3",49 µM and 46 µM
same,Vmax,"[7]; DMOw, Study no. 1-3",633 ± 24 nmol/min/mg and 583 ± 18 nmol/min/mg and 590 ± 19 nmol/min/mg
same,Km,[7]; Michaelis-Menten parameters,49 ± 7 µM
same,Vmax,[7]; Michaelis-Menten parameters,633 ± 24 nmol/min/mg
same,optimum temperature,"[7]; pH 7.2, 20 minutes",approximately 37 °C
same,Vmax,[7]; [8],633 ± 24 × 10^−3 U/mg
same,kcat,[7]; [8],36.63 s⁻¹
same,Km,[7]; [9],49 µM
